According to patent EP0246061A2, “A benzoylurea derivative and its production and use” (SUMITOMO CHEMICAL COMPANY, LIMITED, priority 1986, dated 1987):
Read-outs that look alike come from different tables or passages of the source.

Legend:
Type in all cases: in vivo
[1] = test system: common mosquito (Culex pipiens pallens); assay: Emergence inhibition test on last instar larvae of common mosquito in aqueous dilute solution (Test example 1); details: active ingredient concentration 3.5 ppm in water; 20 last instar larvae; bred until emergence; two replications
Description: The emulsifiable concentrates of the following present compounds prepared according to Formulation example 1 were each diluted with water so that the active ingredient concentration was 3.5 ppm. Thereafter, 100 ml of the aqueous dilute solution thus obtained was put in a 180-ml polyethylene cup, and 20 last instar larvae of common mosquito (Culex pipiens pallens) were liberated therein. The larvae were bred on a bait until emergence to obtain an emergence inhibitory ratio (two replications).

[2] = test system: tobacco cutworm (Spodoptera litura); assay: Mortality test on fourth instar larvae of tobacco cutworm on treated artificial diet (Test example 2); details: 144 h; for mortality at 0.5 ppm: read-out: Concentration and mortality (%) 0.5 ppm; for mortality at […]: in Nicotiana tabacum, read-out: Concentration and mortality (%) […], 1.5 ppm, 2 ml on 13 g artificial diet, ten fourth instar larvae, after six days, two replications
Description: The emulsifiable concentrates of the following present compounds and controls prepared according to Formulation example 1 were each diluted with water to a prescribed concentration, and 2 ml of the aqueous dilute solution thus obtained was applied onto 13 g of artificial diet for tobacco cutworm (Spodoptera litura) which were then put in a polyethylene cup of 11 cm in diameter. Then, ten fourth instar larvae of tobacco cutworm were liberated therein. After six days, the dead and alive were examined to obtain mortality (two replications).

[3] = test system: rice stem borer (Chilo suppressalis); assay: Mortality test on 10-day old larvae of rice stem borer on treated artificial diet (Test example 3); details: 192 h, 67,000-fold dilution (1.5 ppm), 1 ml on 5 g artificial diet, ten 10-day old larvae, after eight days, two replications
From the text: Then, ten 10-day old larvae of rice stem borer were liberated therein. After eight days, the dead and alive were examined to obtain mortality (two replications).

[4] = test system: diamond-back moth (Plutella xylostella) of a field strain; assay: Emergence inhibition test on third instar larvae of diamond-back moth, cabbage leaf dipping (Test example 4); details: 200,000-fold dilution (0.5 ppm); cabbage leaf dipped 1 minute; ten third instar larvae; after nine days; corrected against untreated plot; two replications
Description: A circular cabbage leaf of 9.0 cm in diameter was dipped for 1 minute in the 200,000-fold aqueous dilute solutions each (corresponding to 0.5 ppm) of emulsifiable concentrates prepared from the following present compounds and controls according to Formulation example 1. After air-drying, the leaf was put in a polyethylene cup of 11 cm in diameter in which a filter paper was placed on the bottom, and ten third instar larvae of diamond-back moth (Plutella xylostella) of a field strain were liberated therein. After nine days, the number of emergence was examined to obtain an emergence inhibitory ratio (two replications).

[5] = 0.5 ppm, 2 ml on 13 g artificial diet, ten fourth instar larvae, after six days, two replications

| Compound | Emergence inhibitory ratio (%) [1] | mortality at 0.5 ppm [2, 5] | mortality at […] [2] | mortality at […] [3] | Emergence inhibitory ratio (%) [4] | mortality at 0.5 ppm [2] |
| --- | --- | --- | --- | --- | --- | --- |
| O=C(NC(=O)c1c(F)cc(F)cc1F)Nc1ccc(C(F)(F)C(F)(F)F)cc1F [(10), N-2,4,6-trifluorobenzoyl-Nʹ-2-fluoro-4-pentafluoroethylphenylurea] | 100% | 100% | 100% | 80% | 100% | – |
| O=C(NC(=O)c1c(F)cccc1F)Nc1ccc(Cl)cc1 [(A), Diflubenzuron, reference compound] | – | – | – | – | 11% | 5% |
| O=C(NC(=O)c1c(F)cccc1F)Nc1cc(Cl)cc(C(F)(F)F)c1Cl [(F), reference compound] | – | 20% | 60% | 10% | 22% | – |
| O=C(NC(=O)c1c(F)cc(F)cc1F)Nc1cc(F)c(C(F)(F)F)cc1F [(3), N-2,4,6-trifluorobenzoyl-Nʹ-2,5-difluoro-4-trifluoromethylphenylurea] | 100% | 100% | 100% | 90% | 89% | – |
| O=C(NC(=O)c1c(F)cccc1F)Nc1ccc(Cl)cc1F [(E), reference compound] | – | 10% | 45% | 35% | 33% | – |
| O=C(NC(=O)c1c(F)cccc1F)Nc1ccc(C(F)(F)F)cc1F [(1), N-2,6-difluorobenzoyl-Nʹ-2-fluoro-4-trifluoromethylphenylurea] | 100% | 80% | 100% | 90% | 100% | – |
| CNC(=O)ON=C(C)SC [(D), Methomyl, reference compound] | – | 0% | 10% | 5% | 0% | – |
| O=C(NC(=O)c1c(F)cccc1F)Nc1cc(F)c(C(F)(F)F)cc1F [(2), N-2,6-difluorobenzoyl-Nʹ-2,5-difluoro-4-trifluoromethylphenylurea] | 100% | 100% | 100% | 100% | 100% | – |
| O=C(NC(=O)c1c(F)cccc1F)Nc1cc(F)c(C(F)(F)C(F)(F)F)cc1F [(6), N-2,6-difluorobenzoyl-Nʹ-2,5-difluoro-4-pentafluoroethylphenylurea] | 100% | 100% | 100% | 80% | 100% | – |
| O=C(NC(=O)c1c(F)cccc1F)Nc1ccc(C(F)(F)C(F)(F)F)cc1F [(9), N-2,6-difluorobenzoyl-Nʹ-2-fluoro-4-pentafluoroethylphenylurea] | 100% | 100% | 100% | 90% | 100% | – |
| O=C(NC(=O)c1c(F)cc(F)cc1F)Nc1cc(F)c(C(F)(F)C(F)(F)C(F)(F)F)cc1F [(8), N-2,4,6-trifluorobenzoyl-Nʹ-2,5-difluoro-4-heptafluoropropylphenylurea] | 100% | – | – | 80% | 73% | – |
| O=C(NC(=O)c1c(F)cccc1F)Nc1cc(Cl)c(C(F)(F)F)cc1F [(4), N-2,6-difluorobenzoyl-Nʹ-5-chloro-2-fluoro-4-trifluoromethylphenylurea] | 100% | 70% | 100% | 100% | 89% | – |
| O=C(NC(=O)c1c(F)cc(F)cc1F)Nc1ccc(C(F)(F)F)cc1F [(5), N-2,4,6-trifluorobenzoyl-Nʹ-2-fluoro-4-trifluoromethylphenylurea] | 100% | 100% | 100% | 100% | 100% | – |
| O=C(NC(=O)c1c(F)cccc1F)Nc1cc(F)c(C(F)(F)C(F)(F)C(F)(F)F)cc1F [(7), N-2,6-difluorobenzoyl-Nʹ-2,5-difluoro-4-heptafluoropropylphenylurea] | 100% | 100% | 100% | 100% | 100% | – |
| O=C(NC(=O)c1c(F)cccc1F)Nc1cc(Cl)c(F)c(Cl)c1F [(C), Teflubenzuron, reference compound] | – | – | – | – | 33% | 20% |
